Reference: patent US20110237499A1, “HYBRID TRIPYRROLE-OCTAARGININE COMPOUNDS AND THEIR USE AS MEDICAMENT IN THE TREATMENT OF CANCER AND MICROBIAL ILLNESSES” (priority 2008, published 2011)
Square brackets hold non-standard residues; d marks the D form. Peptide text beside a SMILES is read from it. * marks the point of attachment. FITC = O=C1OC2(c3ccc(O)cc3Oc3cc(O)ccc32)c2ccc(NC(=S)*)cc21; Ahx = NCCCCCC(=O)O

Assays:
HeLa cells = assay: Cellular internalization assay in live HeLa cells (fluorescence microscopy); format: cell-based
Description: The internalization assays were performed in live HeLa cells.
The internalization assays were performed in live HeLa cells, recording the fluorescence images after 30 min, 90 min and 3 h.

HeLa 229 cells = assay: cells; format: cell-based; conditions: 48 hours incubation
Description: Preliminary cytotoxicity studies have been performed using HeLa 229 cells, to verify the possible effect of the presence of octaarginine chain on the biological activity. These studies have been performed following an incubation during 48 hours and they were later evaluated by cell staining by crystal violet and later acetylation.

SMILES	extent of internalization (intracellular fluorescence) (HeLa cells; images after 30 min, 90 min and 3 h)	intracellular localization of the fluorescence signal (HeLa cells; incubation 90 min at 37° C., FIG. 2)	% Inhibition of the cellular growth (HeLa 229 cells; concentration 5.87 μM)	inhibition at 176.5 µM (HeLa 229 cells; Homo sapiens, HeLa 229, concentration 176.5 μM, read-out: % Inhibition of the cellular growth)
N=C(N)NCCC[C@H](NC(=O)[C@H](CCCNC(=N)N)NC(=O)[C@H](CCCNC(=N)N)NC(=O)[C@H](CCCNC(=N)N)NC(=O)[C@H](CCCNC(=N)N)NC(=O)[C@H](CCCNC(=N)N)NC(=O)[C@H](CCCNC(=N)N)NC(=O)[C@H](CCCNC(=N)N)NC(=O)CCCCCNC(=O)[C@H](CCCCN)NC(=O)CCCCCNC(=S)Nc1ccc2c(c1)C(=O)OC21c2ccc(O)cc2Oc2cc(O)ccc21)C(N)=O [1B] ({FITC-Ahx}-K[Ahx]RRRRRRRR-NH2)	the fluorescence is intense	exclusively localized in the cytoplasm	1 ± 2%	
CC(=O)Nc1c[nH]c(C(=O)Nc2cc(C(=O)Nc3cc(C(=O)NCCCN(C)C)n(C)c3)n(C)c2)c1 [compound 9]				4 ± 3%
